Results reported in article PMC6988731 (Bioorganic & medicinal chemistry, 2011).

Target: rat TRPV1 (Rattus norvegicus, UniProt O35433)
Experiment: competitive binding assay with [3H]RTX, rat TRPV1 expressed in CHO cells
Details: rTRPV1/CHO; for fold reduction in binding affinity and antagonism compared to 50: relative to 50; for fold less potent than parent 3: receptor activity (binding affinity and antagonism), relative to 3

Chain of rat TRPV1 (O35433 whole entry): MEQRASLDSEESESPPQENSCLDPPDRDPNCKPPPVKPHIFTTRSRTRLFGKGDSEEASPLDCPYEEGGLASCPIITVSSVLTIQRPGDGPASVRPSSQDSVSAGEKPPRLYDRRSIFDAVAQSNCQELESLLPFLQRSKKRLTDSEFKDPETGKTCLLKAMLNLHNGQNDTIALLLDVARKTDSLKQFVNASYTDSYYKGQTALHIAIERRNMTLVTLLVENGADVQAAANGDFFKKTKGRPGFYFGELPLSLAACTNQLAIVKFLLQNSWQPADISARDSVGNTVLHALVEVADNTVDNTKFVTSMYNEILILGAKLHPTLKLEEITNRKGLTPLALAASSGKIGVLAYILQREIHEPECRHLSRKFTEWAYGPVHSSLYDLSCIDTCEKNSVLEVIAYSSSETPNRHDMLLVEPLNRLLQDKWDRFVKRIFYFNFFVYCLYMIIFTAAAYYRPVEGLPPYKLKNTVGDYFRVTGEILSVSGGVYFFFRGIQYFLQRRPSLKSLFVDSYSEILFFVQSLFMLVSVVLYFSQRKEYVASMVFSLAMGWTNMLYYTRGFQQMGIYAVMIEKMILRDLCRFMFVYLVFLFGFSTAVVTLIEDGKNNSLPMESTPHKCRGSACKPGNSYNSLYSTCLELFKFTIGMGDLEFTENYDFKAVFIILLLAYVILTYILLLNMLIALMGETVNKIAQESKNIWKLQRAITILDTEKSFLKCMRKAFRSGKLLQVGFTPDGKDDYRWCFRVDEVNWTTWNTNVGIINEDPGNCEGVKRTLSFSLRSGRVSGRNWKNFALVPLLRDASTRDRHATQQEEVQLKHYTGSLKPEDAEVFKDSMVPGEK

Compound	fold reduction in binding affinity and antagonism compared to 50	fold less potent than parent 3
CC(C(=O)NCC=C1c2ccccc2CCc2ccccc21)c1ccc(NS(C)(=O)=O)c(F)c1 (stereo not shown) [compound 59, N-[2-(10,11-Dihydro-5H-dibenzo[a,d]cyclohepten-5-yliden)ethyl]-2-[3-fluoro-4-(methylsulfonylamino)phenyl]propionamide]	5–10 fold	
CC(C(=O)NCc1ccc(I)cc1)c1ccc(NS(C)(=O)=O)c(F)c1 (stereo not shown) [compound 24, 2-(3-Fluoro-4-methanesulfonylamino-phenyl)-N-(4-iodo-benzyl)-propionamide]		10 fold
CC(C(=O)NCC=C1c2ccccc2C=Cc2ccccc21)c1ccc(NS(C)(=O)=O)c(F)c1 (stereo not shown) [compound 60, N-[2-Dibenzo[a,d]cyclohepten-5-ylidene-ethyl]-2-(3-fluoro-4-methylsulfonylamino-phenyl)-propionamide]	5–10 fold	
Cc1ccc(CCCNC(=O)C(C)c2ccc(NS(C)(=O)=O)c(F)c2)cc1C (stereo not shown) [compound 40, N-[3-(3,4-Dimethylphenyl)propyl]-2-[3-fluoro-4-(methylsulfonylamino)phenyl]propionamide]		ca. 10 fold
